This note sets out measurements from US12173026B2, “PRMT5 inhibitors” (Merck Sharp & Dohme LLC, priority 2018, dated 2024).

SMILES strings stand for the structures.

For the experiment, the system named is symmetric dimethylation of arginine (SDMA) of PRMT5 substrates in MCF-7 cells. The experiment is described as follows: PRMT5 Cell Target Engagement (TE) Assay. The experiment is classed as cell-based. The conditions noted are these: Homo sapiens, MCF7, 72 h; MCF-7 cells treated for 3 days; nuclear SDMA by high content imaging; top concentration 10000 nM. In outline: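 MCF-7 cells treated 3 days at 37 °C with 10-point 1:3 titration from 10000 nM top. Fixed cells stained with anti-SDMA antibody plus Alexa488 secondary and Hoechst; nuclear fluorescence quantified by high-content imaging versus DMSO wells. EC50 from 4-parameter fit of percent fluorescence vs log concentration.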
Consider `Nc1nc2cc(C[C@@H]3CC[C@@]4(O)[C@@H]3O[C@@H](n3cc(F)c5c(N)ncnc53)[C@@H]4O)ccc2cc1Br` [Example 108], for which the EC50 came out at 0.9 nM. That is a sub-nanomolar value.

Consider `Cc1ncnc2c1ccn2[C@@H]1C[C@](C)(CCc2ccc3cc(Br)c(N)nc3c2)[C@@H](O)[C@H]1O` [Example 109, (1S,2R,3S,5R)-3-(2-(2-amino-3-bromoquinolin-7-yl)ethyl)-3-methyl-5-(4-methyl-7H-pyrrolo[2,3-d]pyrimidin-7-yl)cyclopentane-1,2-diol], for which the EC50 came out at 5.9 nM.

`Cc1ncnc2c1ccn2[C@@H]1C[C@](C)(CCc2ccc3cc4c(nc3c2)NCC4)[C@@H](O)[C@H]1O` [Example 110, (1S,2R,3S,5R)-3-(2-(2,3-dihydro-1H-pyrrolo[2,3-b]quinolin-7-yl)ethyl)-3-methyl-5-(4-methyl-7H-pyrrolo[2,3-d]pyrimidin-7-yl)cyclopentane-1,2-diol]: a half-maximal response (EC50) required 39.6 nM.

`C[C@]1(COc2ccc3cc(Br)c(N)nc3c2)C[C@@H](n2ccc3c(N)ncnc32)[C@H](O)[C@]1(C)O` [Example 111, (1R,2S,3R,5R)-5-(((2-amino-3-bromoquinolin-7-yl)oxy)methyl)-3-(4-amino-7H-pyrrolo[2,3-d]pyrimidin-7-yl)-1,5-dimethylcyclopentane-1,2-diol]: the EC50 was 2330 nM.

`Cc1ncnc2c1ccn2[C@@H]1O[C@@H]2[C@@H](Oc3ccc4cc(Cl)c(N)nc4c3)CC[C@]2(O)[C@H]1O` [Example 112, (2R,3R,3aS,6S,6aR)-6-((2-amino-3-chloroquinolin-7-v)oxy)-2-(4-methyl-7H-pyrrolo[2,3-d]pyrimidin-7-yl)hexahydro-2H-cyclopenta[b]furan-3,3a-diol]: the response was half-maximal at 4 nM (EC50).

As for `Cc1ncnc2c1ccn2[C@@H]1O[C@@H]2[C@@H](Oc3ccc4ccc(N)nc4c3)CC[C@]2(O)[C@H]1O` [Example 113, (2R,3R,3aS,6S,6aR)-6-((2-aminoquinolin-7-yl)oxy)-2-(4-methyl 7H-pyrrolo[2,3-d]pyrimidin-7-yl)hexahydro-2H-cyclopenta[b]furan-3,3a-diol], it took 1.8 nM to reach a half-maximal effect (EC50).

In turn, `Cc1nc(N)nc2c1ccn2[C@@H]1O[C@@H]2[C@@H](Oc3ccc4cc(Br)c(N)nc4c3)CC[C@]2(O)[C@H]1O` [Example 114, (2R,3R,3aS,6S,6aR)-6-((2-amino-3-bromoquinolin-7-yl)oxy)-2-(2-amino-4-methyl-7H-pyrrolo[2,3-d]pyrimidin-7-yl)hexahydro-3aH-cyclopenta[b]furan-3,3a-diol] registered an EC50 of 4.4 nM.

Turning to `Cc1ncnc2c1ccn2[C@@H]1O[C@@H]2[C@@H](Oc3ccc4cc(C(F)F)c(N)nc4c3)CC[C@]2(O)[C@H]1O` [Example 115, (2R,3R,3aS,6S,6aR)-6-((2-amino-3-(difluoromethyl)quinolin-7-yl)oxy)-2-(4-methyl-7H-pyrrolo[2,3-d]pyrimidin-7-yl)hexahydro-3aH-cyclopenta[b]furan-3,3a-diol], the EC50 came out at 13.6 nM. This EC50 is about 3.1-fold higher than that of the compound before.

In turn, `C[C@@]1(CCc2ccc3cc(F)c(N)nc3c2)C[C@@H](n2ccc3c(N)ncnc32)[C@H](O)[C@@H]1O` [Example 116, (1S,2R,3R,5R)-3-(2-(2-amino-3-fluoroquinolin-7-yl)ethyl)-5-(4-amino-7H-pyrrolo[2,3-d]pyrimidin-7-yl)-3-methylcyclopentane-1,2-diol] returned an EC50 of 53.7 nM. Against the preceding compound, the EC50 is about 3.9-fold higher.

For `C[C@]1(CCc2ccc3cc(Br)c(N)nc3c2)C[C@@H](n2ccc3c(N)ncnc32)[C@H](O)[C@]1(C)O` [Example 117, (1R,2S,3R,5S)-5-(2-(2-amino-3-bromoquinolin-7-yl)ethyl)-3-(4-amino-7H-pyrrolo[2,3-d]pyrimidin-7-yl)-1,5-dimethylcyclopentane-1,2-diol], the midpoint of the response, the EC50, lay at 8.5 nM.

`C[C@]1(O)[C@@H](O)[C@H](n2ccc3c(N)ncnc32)C[C@]1(O)CCc1ccc2cc(Br)c(N)nc2c1` [Example 118, (1R,2S,3S,4R)-1-(2-(2-amino-3-bromoquinolin-7-yl)ethyl)-4-(4-amino-7H-pyrrolo[2,3-d]pyrimidin-7-yl)-2-methylcyclopentane-1,2,3-triol] had an EC50 of 103 nM.

For the compound `Nc1nc2cc(O[C@H]3CC[C@@]4(O)[C@@H]3C[C@@H](n3ccc5c(N)ncnc53)[C@@H]4O)ccc2cc1Br` [Example 119, (1S,2R,3aR,4S,6aR)-4-((2-amino-3-bromoquinolin-7-yl)oxy)-2-(4-amino-7H-pyrrolo[2,3-d]pyrimidin-7-yl)hexahydropentalene-1,6a(1H)-diol 2,2,2-trifluoroacetate], the EC50 amounted to 180 nM.

Compound `Cc1ncnc2c1ccn2[C@@H]1O[C@@H]2[C@@H](Nc3ccc4cc(F)c(N)nc4c3)CC[C@]2(O)[C@H]1O` [Example 120, (2R,3R,3aS,6S,6aR)-6-(2-amino-3-fluoroquinolin-7-yl)amino-2-(4-methyl-7H-pyrrolo[2,3-d]pyrimidin-7-yl)hexahydro-3aH-cyclopenta[b]furan-3,3a-diol] yielded an EC50 of 2 nM.

Turning to `C[C@]12O[C@@H](n3ccc4c(N)ncnc43)[C@H](O)[C@@]1(O)CC[C@H]2Cc1ccc2cc(F)c(N)nc2c1` [Example 121, (2R,3R,3aS,6S,6aR)-6-((2-amino-3-fluoroquinolin-7-yl)methyl)-2-(4-amino-7H-pyrrolo[2,3-d]pyrimidin-7-yl)-6a-methylhexahydro-3aH-cyclopenta[b]furan-3,3a-diol], the EC50 amounted to 1 nM.

On to `Cc1ncnc2c1ccn2[C@@H]1O[C@@H]2[C@H](Cc3ccc4cc(Cl)c(N)nc4c3)CC[C@]2(O)[C@H]1O` [Example 122, (2R,3R,3aS,6S,6aR)-6-((2-amino-3-chloroquinolin-7-yl)methyl)-2-(4-methyl-7H-pyrrolo[2,3-d]pyrimidin-7-yl)hexahydro-3aH-cyclopenta[b]furan-3,3a-diol], for which the EC50 is 2.5 nM.

`Cc1ncnc2c1ccn2[C@@H]1O[C@@H]2[C@H](Cc3ccc4cc(F)c(N)nc4c3)CC[C@]2(O)[C@H]1O` [Example 123, (2R,3R,3aS,6S,6aR)-6-((2-amino-3-fluoroquinolin-7-yl)methyl)-2-(4-methyl-7H-pyrrolo[2,3-d]pyrimidin-7-yl)hexahydro-3aH-cyclopenta[b]furan-3,3a-diol] came in with an EC50 of 13.1 nM.

In turn, `Nc1nc2cc(C[C@@H]3CC[C@@]4(O)[C@@H]3O[C@@H](n3ccc5c(N)ncnc53)[C@@H]4O)ccc2cc1F` [Example 124, (2R,3R,3aS,6S,6 aR)-6-((2-amino-3-fluoroquinolin-7-yl)methyl)-2-(4-amino-7H-pyrrolo[2,3-d]pyrimidin-7-yl)hexahydro-3aH-cyclopenta[b]furan-3,3a-diol] displayed an EC50 of 2.3 nM.

Compound `Cc1cc2ccc(C[C@@H]3CC[C@@]4(O)[C@@H]3O[C@@H](n3ccc5c(N)ncnc53)[C@@H]4O)cc2nc1N` [Example 125, (2R,3R,3aS,6S,6aR)-6-((2-amino-3-methylquinolin-7-yl)methyl)-2-(4-amino-7H-pyrrolo[2,3-d]pyrimidin-7-yl)hexahydro-3aH-cyclopenta[b]furan-3,3a-diol] came in with an EC50 of 0.7 nM.

In turn, `C[C@]1(CCc2ccc3cc4c(nc3c2)NCC4)C[C@@H](n2ccc3c(N)ncnc32)[C@H](O)[C@@H]1O` [Example 126, (1S,2R,3S,5R)-5-(4-amino-7H-pyrrolo[2,3-d]pyrimidin-7-yl)-3-(2-(2,3-dihydro-1H-pyrrolo[2,3-b]quinolin-7-yl)ethyl)-3-methylcyclopentane-1,2-diol] came in with an EC50 of 2.9 nM. Compared with the last compound, the EC50 is about 4.1-fold higher.
